Source: patent US20130280279A1, “PHARMACEUTICAL COMPOSITION OF A COMPLEX OF AN ANTI-DIG ANTIBODY AND DIGOXIGENIN THAT IS CONJUGATED TO A PEPTIDE” (HOFFMANN-LA ROCHE INC., priority 2011, published 2013)

Tests used:
[1] = test system: diet-induced obese (DIO) mice; assay: food intake in DIO (diet-induced-obesity) model; assay type: in vivo, C57Bl/6 mice; conditions: moPYY 11.05 μMol/kg, antibody-complexed DIG-moPYY 0.62 μMol/kg, up to 96 h post-dosing
Description: To determine the effect of NPY2-receptor agonists on food intake in these experiments we applied uncomplexed PYY-derived peptides and antibody complexed peptides to animals (adult male C57Bl/6 mice) in a DIO (diet-induced-obesity) model. The experiments were conducted on adult male C57Bl/6 mice obtained from Jackson laboratories. The mice were placed on a high fat diet (HFD; 60% of dietary kcal as fat, BioServe F3282) for over 20 weeks to induce obesity. The diet-induced obese (DIO) mice were sorted by body weight and 24 h food intake, and housed individually in standard caging at 22° C. in a reversed 12-h light/12-h dark cycle, and were acclimated to these conditions for at least 6 days before start of the experiment. Food (HFD) and water were provided ad libitum throughout the study. Ab-PYY3-37 fusion proteins and the vehicle controls were injected at the beginning of the dark cycle and food intake measured at various time intervals up to 96 h post-dosing (N=6-8 mice/group). Uncomplexed peptide moPYY was applied at concentration of 11.05 μMol/kg. Antibody-complexed DIG-moPYY was applied at a concentration of 0.62 μMol/kg. Thus, the injected molar concentration of the antibody complexed peptide was more than 17-fold lower than that of the uncomplexed peptide. […]

NPY2 receptor = target: T1, NPY2 receptor (Homo sapiens, UniProt P49146); assay: cAMP assay: inhibition of Forskolin stimulated cAMP accumulation in HEK293/hNPY2R; assay type: cell-based
T1 construct: expressed in transfected cells; host or cells: HEK293/hNPY2R (grown under G418 selection)
T1 sequence (P49146 1-381): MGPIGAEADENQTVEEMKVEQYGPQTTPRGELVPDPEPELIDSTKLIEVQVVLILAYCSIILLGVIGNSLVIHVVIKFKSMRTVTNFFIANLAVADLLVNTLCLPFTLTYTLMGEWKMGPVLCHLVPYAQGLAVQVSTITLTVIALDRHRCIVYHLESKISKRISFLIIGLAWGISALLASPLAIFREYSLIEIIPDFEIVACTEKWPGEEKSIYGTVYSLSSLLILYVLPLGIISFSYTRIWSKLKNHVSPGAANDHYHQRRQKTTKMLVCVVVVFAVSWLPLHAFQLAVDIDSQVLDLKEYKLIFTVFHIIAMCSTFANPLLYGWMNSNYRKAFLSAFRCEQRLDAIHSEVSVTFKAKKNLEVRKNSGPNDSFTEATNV
Description: To perform the assay, on the first day, medium was discarded, and the monolayer cells were washed with 10 mL PBS per flask (T225). […] The flask was gently tapped and the cell suspension was pooled. Each flask was rinsed with 10 mL plating medium and centrifuged at 1000 rpm for 5 min. The suspension was pooled and counted. […] The plates were incubated at 37° C. overnight. […] The media and reagents were allowed to come to room temperature. […] The cell medium was tapped off with a gentle inversion of the cell plate on a paper towel. 50 μL of stimulation medium was placed per well (each concentration done in four replicates). The plates were incubated at room temperature for 30 min, and the cells were checked under a microscope for toxicity. After 30 min of treatment, the stimulation media was discarded and 50 μL/well of Assay Lysis Buffer (provided in the Tropix kit) was added. […] 20 μL of the lysate was transferred from stimulation plates into the pre-coated antibody plates (384-well) from the Tropix kit. […] The plates were incubated at room temperature while shaking for 1 hour. […] The plates were tapped to dry. […] Signal for 1 sec/well in a Luminometer. (VICTOR-V) was measured.

[2] = serum levels of Dig-peptide after i.v. application, Western Blot; assay type: in vivo, mice (strain NRMI)
Description: To generate Dig-Cy5 complexes, 886.1 nmol of lyophilized DIG-Cy5 were added to 446.4 nmol anti-DIG-Antibody in 20 mM Histidin/140 mM NaCl pH 6.0 in 4 portions within 1 h at RT, slowly shaking. After the addition of the last portion the sample was incubated for a total of 2 h. In case of the DIG-PYY complexes, 691.7 nmol of lyophilized DIG-PYY were added to 364 nmol anti-DIG-Antibody in 20 mM Histidin/140 mM NaCl pH 6.0 and treated equally as the DIG-Cy5 complexes. The samples were applied to a Superdex 200 HiLoad 16/60 prep grade size exclusion column with 20 mM Histidin/140 mM NaCl pH6.0 as mobile phase. Fractions containing the complex were pooled and concentrated to 19.4 mg/ml (DIG-Cy5 complex) and 19.9 mg/ml (DIG-PYY complex) with a centrifugal filtration device (Vivaspin 20, 30 kDa MWCO, GE Healthcare). The protein concentration of the DIG-Cy5 containing sample was determined by the formula 4A280−(A649×CF))×dilution factor)/ε. CF is the correction factor A280nm/A649nm which was determined as 0.008. Loading of the antibody with DIG-Cy5 was calculated as 1.2 moles of DIG-Cy5 per mole antibody with the formula: (A649nm/(εCy5×protein concentration M))×dilution factor. […] All samples were filtered with a PVDF syringe filter (0.22 μm pore size) under sterile conditions.
To analyze the influence on PK parameters of antibody-complexation of the digoxigenated peptide, 32.1 nmol of the peptide DIG-moPYY, or of the corresponding antibody complexated peptide in 20 mM Histidin/140 mM NaCl pH 6.0 were applied to 2 female mice (strain NRMI) for each substance. […] About 0.1 ml blood samples were collected after the following time points: 0.08 h, 2 h and 24 h for Mouse 1 and 0.08 h, 4 h 24 h for Mouse 2. Serum samples of at least 40 μl were obtained after 1 h at RT by centrifugation (9300×g, 3 min, 4° C.). Serum samples were stored at −80° C. […] The reason for that was that we had no direct means to detect the peptide in serum samples. Therefore, we devised a Western-Blot related assay to detect digoxigenated peptide in serum. In a first step, the serum samples were separated on reducing SDS-PAGE. Because sample preparation for that included exposure of the serum to high concentrations of SDS and reducing agents, Dig-peptides can become released from the (completely denatured/unfolded)<Dig> IgG. To mediate the release of peptide from the antibody complex and separate them by SDS-PAGE, 2 μl of each serum sample was diluted in 18 μl 20 mM Histidin/140 mM NaCl pH 6.0, mixed with 6.7 μl of 4×LDS sample buffer and 3 μl of 10× sample reducing agent (NuPAGE, Invitrogen) for 5 min at 95° C. […] Digoxigenated peptides were subsequently detected on the membrane with anti-digoxygenin antibodies. […] Chemiluminescence was detected with the LumiImager F 1 (Roche) with an exposure time of 20 min. […]

[3] = excitation and emission spectra of Cy5 derivatives; assay type: physicochemical
From the text: To evaluate whether digoxigenation of Cy5 alters its fluorescence features, we compared the excitation and emission spectra of Cy5 and compared it with the spectra of the newly generated Dig-Cy5 and with Dig-Cy5 within a complex with bispecific antibodies.

CC[C@H](C)[C@H](NC(C)=O)C(=O)N[C@@H](CCCCNC(=O)CCOCCOCCOCCNC(=O)CO[C@H]1CC[C@@]2(C)[C@H](CC[C@@H]3[C@@H]2C[C@@H](O)[C@]2(C)[C@@H](C4=CC(=O)OC4)CC[C@]32O)C1)C(=O)N1CCN(c2ccc3ncn(CC(=O)N[C@@H](CCCNC(=N)N)C(=O)N[C@@H](Cc4c[nH]cn4)C(=O)N[C@@H](Cc4ccc(O)cc4)C(=O)N[C@@H](CC(C)C)C(=O)N[C@@H](CC(N)=O)C(=O)N[C@@H](Cc4c[nH]c5ccccc45)C(=O)N[C@H](C(=O)N[C@H](C(=O)N[C@@H](CCCNC(=N)N)C(=O)N[C@@H](CCC(N)=O)C(=O)N(C)[C@@H](CCCNC(=N)N)C(=O)N[C@@H](Cc4ccc(O)cc4)C(N)=O)[C@@H](C)O)C(C)C)c(=O)c3c2)CC1 [<Dig> DIGmoPYY]
effect on food intake [1]: strikingly reduced the food-intake | biological activity in vitro compared to PEG-peptide (NPY2 receptor; cAMP assay): four fold better | Dig-peptide signal in serum (Western Blot, in words) ([2]; 5 min after administration, listed as <DIG>-DIG-moPYY): strong signals | Dig-peptide signal in serum (Western Blot, in words) ([2]; later time points up to 24 hrs after administration, listed as <DIG>-DIG-moPYY): still detectable with good signals

CCN1/C(=C/C=C/C=C/C2=[N+](CCCCCC(=O)O)c3ccc(S(=O)(=O)O)cc3C2(C)C)C(C)(C)c2cc(S(=O)(=O)[O-])ccc21 [Cy5]
Emission maximum [3]: 680 nm | Excitation maximum [3]: 652 nm

CC[C@H](C)[C@H](NC(C)=O)C(=O)N[C@@H](CCCCNC(=O)CCOCCOCCOCCNC(=O)CO[C@H]1CC[C@@]2(C)[C@H](CC[C@@H]3[C@@H]2C[C@@H](O)[C@]2(C)[C@@H](C4=CC(=O)OC4)CC[C@]32O)C1)C(=O)N1CCN(c2ccc3ncn(CC(=O)N[C@@H](CCCNC(=N)N)C(=O)N[C@@H](Cc4c[nH]cn4)C(=O)N[C@@H](Cc4ccc(O)cc4)C(=O)N[C@@H](CC(C)C)C(=O)N[C@@H](CC(N)=O)C(=O)N[C@@H](Cc4c[nH]c5ccccc45)C(=O)N[C@H](C(=O)N[C@H](C(=O)N[C@@H](CCCNC(=N)N)C(=O)N[C@@H](CCC(N)=O)C(=O)N(C)[C@@H](CCCNC(=N)N)C(=O)N[C@@H](Cc4ccc(O)cc4)C(N)=O)[C@@H](C)O)C(C)C)c(=O)c3c2)CC1 [DIG-moPYY]
IC50 (NPY2 receptor): 0.42 nM | Dig-peptide signal in serum (Western Blot, in words) ([2]; 5 min after administration): only in trace amounts | Dig-peptide signal in serum (Western Blot, in words) ([2]; later time points up to 24 hrs after administration): no defined peptide band are detectable
